Reference: patent US20080194585A1, “Fungicidal Pyrazine Derivatives” (priority 2005, published 2008)
Marks after values point to notes of the source that are not given here.

How the values were obtained:
[1] = tested on: Puccinia recondita f. sp. tritici; test: Test K: wheat leaf rust, preventive spray on wheat seedlings; details: for Test K disease control rating: 200 ppm
Rhizoctonia oryzae = test: Test G: turf brown patch, preventive spray on creeping bent grass seedlings
Description: (the causal agent of turf brown patch) and incubated in a saturated atmosphere at 27° C. for 24 h, and then moved to a growth chamber at 27° C. for 5 days, after which disease ratings were made.

Botrytis cinerea = test: Test E: tomato botrytis, preventive spray on tomato seedlings
Septoria nodorum = test: Test H: wheat glum blotch, preventive spray on wheat seedlings
Description: (the causal agent of wheat glum blotch) and incubated in a saturated atmosphere at 20° C. for 48 h, and then moved to a growth chamber at 22° C. for 5 days, after which disease ratings were made.

Plasmopara viticola = test: Test D: grape downy mildew, spray after inoculation of grape seedlings; format: in vivo
Description: Upon removal, disease ratings were made. […] A dash (-) indicates no test results.

Phytophthora infestans = test: whole plant or invertebrate; format: in vivo
[2] = tested on: Colletotrichum orbiculare; test: Test B: cucumber Colletotrichum anthracnose, preventive spray on cucumber seedlings
Pythium aphanidermatum = test: Test A: bluegrass pythium blight, preventive spray on bluegrass seedlings; details: for Test A disease control rating: 200 ppm
[3] = tested on: Erysiphe graminis f. sp. tritici; test: Test L: wheat powdery mildew, preventive spray on wheat seedlings
fusarium graminearium = test: Test I: wheat head scab, preventive spray on wheat seedlings
Description: (the causal agent of wheat head scab) and incubated in a saturated atmosphere at 20° C. for 72 h, and then moved to a growth chamber at 22° C. for 5 days, after which disease ratings were made.

Septoria tritici = test: Test J: wheat leaf blotch, preventive spray on wheat seedlings; format: in vivo; details: 40 ppm (marked *); 100 = 100% disease control, 0 = no control
Description: A dash (-) indicates no test results.

[4] = 100 = 100% disease control, 0 = no control relative to controls
[5] = 200 ppm, 100 = 100% disease control, 0 = no control relative to controls
[6] = 40 ppm (marked *), 100 = 100% disease control, 0 = no control

Row | SMILES | Test D disease control rating (Plasmopara viticola; [6]) | Test J disease control rating (Septoria tritici) | Test G disease control rating (Rhizoctonia oryzae; [6]) | Test E disease control rating (Botrytis cinerea; [6]) | Test H disease control rating (Septoria nodorum; [6]) | Test F disease control rating (Phytophthora infestans; [6]) | Test B disease control rating [2, 6] | Test L disease control rating [3, 6] | Test I disease control rating (fusarium graminearium; [6]) | also measured
1 | CC(C)=Nn1c(-c2c(F)cccc2F)c(Cl)nc(-n2cccn2)c1=O [Compound 392, 5-Chloro-6-(2,6-difluorophenyl)-1-[(1-methylethylidene)amino]-3-(1H-pyrazol-1-yl)-2(1H)-pyrazinone] |  |  |  |  |  |  |  |  |  | pest or weed control at 200 ppm ([1]; Puccinia recondita, in Triticum aestivum, 192 h, read-out: Test K disease control rating): 99%; pest or weed control at 200 ppm (Rhizoctonia oryzae; Waitea circinata, in Agrostis stolonifera, topical, 144 h, read-out: Test G disease control rating, 200 ppm, 100 = 100% disease control, 0 = no control relative to controls): 69%; pest or weed control at 200 ppm (Botrytis cinerea; Botrytis cinerea, in Solanum lycopersicum, topical, 72 h, read-out: Test E disease control rating): 99%; pest or weed control at 200 ppm (Septoria nodorum; Parastagonospora nodorum, in Triticum aestivum, topical, 168 h, read-out: Test H disease control rating, 200 ppm, 100 = 100% disease control, 0 = no control relative to controls): 78%; pest or weed control at 200 ppm (Plasmopara viticola; Plasmopara viticola, 168 h, 200 ppm, 100 = 100% disease control, 0 = no control relative to controls, read-out: Test D disease control rating): 0%; pest or weed control at 200 ppm (Phytophthora infestans; Phytophthora infestans, in Solanum lycopersicum, topical, 144 h, read-out: Test F disease control rating): 0%; pest or weed control at 200 ppm ([2]; Colletotrichum orbiculare, in Cucumis sativus, 144 h, read-out: Test B disease control rating, 200 ppm, 100 = 100% disease control, 0 = no control relative to controls): 0%; pest or weed control at 200 ppm (Pythium aphanidermatum; Pythium aphanidermatum, 120 h, read-out: Test A disease control rating): 0%; pest or weed control at 200 ppm ([3]; Blumeria graminis, in Triticum aestivum, 168 h, read-out: Test L disease control rating, 200 ppm, 100 = 100% disease control, 0 = no control relative to controls): 59%; pest or weed control at 200 ppm (fusarium graminearium; Fusarium, in Triticum aestivum, topical, 192 h, read-out: Test I disease control rating, 200 ppm, 100 = 100% disease control, 0 = no control relative to controls): 0%
2 | CC(C)Cn1c(-c2c(F)cccc2F)c(Cl)nc(N2CCC=N2)c1=O [compound 4] |  |  |  |  |  |  |  |  |  | Test K disease control rating [1]: 98%; Test G disease control rating (Rhizoctonia oryzae; 200 ppm): 99%; Test E disease control rating (Botrytis cinerea; 200 ppm): 96%; Test H disease control rating (Septoria nodorum; 200 ppm): 99%; Test D disease control rating (Plasmopara viticola; 200 ppm): 12%; Test F disease control rating (Phytophthora infestans; 200 ppm): 0%; Test B disease control rating ([2]; 200 ppm): 0%; Test A disease control rating (Pythium aphanidermatum): 0%; Test L disease control rating ([3]; 200 ppm): 96%; Test I disease control rating (fusarium graminearium; 200 ppm): 0%
3 | CCC(C)c1c(Cl)nc(-n2ccc(C)n2)c(=O)n1CC(C)C (centres unmarked) [compound 390] |  |  |  |  |  |  |  |  |  | Test K disease control rating [1, 4]: 100%; Test G disease control rating (Rhizoctonia oryzae; [5]): 99%; Test E disease control rating (Botrytis cinerea; [5]): 98%; Test H disease control rating (Septoria nodorum; [5]): 0%; Test D disease control rating (Plasmopara viticola; [5]): 8%; Test F disease control rating (Phytophthora infestans; [5]): 0%; Test B disease control rating [2, 5]: 0%; Test A disease control rating (Pythium aphanidermatum; [4]): 0%; Test L disease control rating [3, 5]: 100%; Test I disease control rating (fusarium graminearium; [5]): 0%
4 | CC(C)Cn1c(-c2c(F)cccc2F)c(I)nc(-c2ccccn2)c1=O [compound 401] | 0* % | 32* % |  |  |  |  |  |  |  | Test G disease control rating (Rhizoctonia oryzae; [5]): 85%; Test E disease control rating (Botrytis cinerea; [5]): 96%; Test H disease control rating (Septoria nodorum; [5]): 95%; Test F disease control rating (Phytophthora infestans; [5]): 0%; Test B disease control rating [2, 5]: 0%; Test L disease control rating [3, 5]: 98%; Test I disease control rating (fusarium graminearium; [5]): 0%
5 | O=c1c(-n2cccn2)nc(Cl)c(-c2c(F)cc(F)cc2F)n1-c1ccc(Cl)c(Cl)c1 [compound 402] | 0* % | 99* % | 0* % | 99* % | 100* % | 0* % | 98* % | 57* % | 0* % | 
6 | Cc1ccn(-c2nc(Cl)c(-c3c(F)cc(F)cc3F)n(-c3ccc(Cl)c(Cl)c3)c2=O)n1 [compound 403] | 0* % | 98* % |  | 99* % | 100* % | 0* % | 99* % | 99* % | 0* % | Test G disease control rating (Rhizoctonia oryzae; [5]): 0%
7 | O=c1c(-n2cccn2)nc(Cl)c(-c2c(F)cc(F)cc2F)n1-c1cc(Cl)cc(Cl)c1 [compound 404] | 0* % | 97* % | 9* % | 98* % | 100* % | 0* % | 0* % | 0* % | 0* % | 
8 | Cc1ccn(-c2nc(Cl)c(-c3c(F)cc(F)cc3F)n(-c3cc(Cl)cc(Cl)c3)c2=O)n1 [compound 405] | 0* % | 99* % | 17* % | 99* % | 98* % | 0* % | 36* % | 0* % | 0* % | 
9 | O=c1c(-n2cccn2)nc(Cl)c(-c2c(F)cc(F)cc2F)n1-c1ccc(F)c(Cl)c1 [compound 406] | 0* % | 100* % | 50* % | 99* % | 99* % | 0* % | 84* % | 0* % | 0* % | 
10 | Cc1ccn(-c2nc(Cl)c(-c3c(F)cc(F)cc3F)n(-c3ccc(F)c(Cl)c3)c2=O)n1 [compound 407] | 0* % | 99* % | 9* % | 99* % | 99* % | 0* % | 32* % | 0* % | 0* % | 
11 | O=c1c(-n2cccn2)nc(Cl)c(-c2c(F)cc(F)cc2F)n1-c1ccc(F)cc1 [compound 408] | 0* % | 99* % | 91* % | 99* % | 100* % | 0* % | 98* % | 99* % | 0* % | 
12 | Cc1ccn(-c2nc(Cl)c(-c3c(F)cc(F)cc3F)n(-c3ccc(F)cc3)c2=O)n1 [compound 409] | 0* % | 99* % | 24* % | 99* % | 99* % | 0* % | 98* % | 60* % | 0* % | 
13 | O=c1c(-n2cccn2)nc(Cl)c(-c2c(F)cc(F)cc2F)n1-c1cc(F)c(F)c(F)c1 [compound 410] | 0* % | 98* % | 17* % | 99* % | 99* % | 0* % | 97* % | 0* % | 0* % | 
14 | Cc1ccn(-c2nc(Cl)c(-c3c(F)cc(F)cc3F)n(-c3cc(F)c(F)c(F)c3)c2=O)n1 [compound 411] | 0* % | 98* % | 16* % | 99* % | 99* % | 0* % | 98* % | 87* % | 0* % | 
15 | CCn1c(-c2ccc(F)cc2Cl)c(Cl)nc(C(N)=O)c1=O [compound 412] |  | 0* % | 0* % | 29* % | 0* % |  | 0* % | 0* % |  | Test D disease control rating (Plasmopara viticola; [5]): 16%; Test F disease control rating (Phytophthora infestans; [5]): 9%; Test I disease control rating (fusarium graminearium; [5]): 0%
16 | O=c1c(-n2cccn2)nc(Cl)c(-c2c(F)cc(F)cc2F)n1C1CCCCC1 [compound 418] |  |  |  |  |  |  |  |  |  | Test K disease control rating [1, 4]: 99%; Test G disease control rating (Rhizoctonia oryzae; [5]): 99%; Test E disease control rating (Botrytis cinerea; [5]): 99%; Test H disease control rating (Septoria nodorum; [5]): 100%; Test D disease control rating (Plasmopara viticola; [5]): 47%; Test F disease control rating (Phytophthora infestans; [5]): 0%; Test B disease control rating [2, 5]: 99%; Test A disease control rating (Pythium aphanidermatum; [4]): 0%; Test L disease control rating [3, 5]: 100%; Test I disease control rating (fusarium graminearium; [5]): 0%
17 | CCC(C)Cn1c(-c2ccc(OC)cc2F)c(Cl)nc(-n2cccn2)c1=O (centres unmarked) [compound 421] |  |  |  |  |  |  |  |  |  | Test K disease control rating [1, 4]: 100%; Test G disease control rating (Rhizoctonia oryzae; [5]): 34%; Test E disease control rating (Botrytis cinerea; [5]): 99%; Test H disease control rating (Septoria nodorum; [5]): 100%; Test D disease control rating (Plasmopara viticola; [5]): 3%; Test F disease control rating (Phytophthora infestans; [5]): 0%; Test B disease control rating [2, 5]: 99%; Test A disease control rating (Pythium aphanidermatum; [4]): 0%; Test L disease control rating [3, 5]: 94%; Test I disease control rating (fusarium graminearium; [5]): 0%
